Where a name gives a salt, the structure may show the parent alone.
Target: T1, human SSAO (Homo sapiens, UniProt Q16853)
T1 construct: made in house
T1 sequence (Q16853 29-763 limits assumed): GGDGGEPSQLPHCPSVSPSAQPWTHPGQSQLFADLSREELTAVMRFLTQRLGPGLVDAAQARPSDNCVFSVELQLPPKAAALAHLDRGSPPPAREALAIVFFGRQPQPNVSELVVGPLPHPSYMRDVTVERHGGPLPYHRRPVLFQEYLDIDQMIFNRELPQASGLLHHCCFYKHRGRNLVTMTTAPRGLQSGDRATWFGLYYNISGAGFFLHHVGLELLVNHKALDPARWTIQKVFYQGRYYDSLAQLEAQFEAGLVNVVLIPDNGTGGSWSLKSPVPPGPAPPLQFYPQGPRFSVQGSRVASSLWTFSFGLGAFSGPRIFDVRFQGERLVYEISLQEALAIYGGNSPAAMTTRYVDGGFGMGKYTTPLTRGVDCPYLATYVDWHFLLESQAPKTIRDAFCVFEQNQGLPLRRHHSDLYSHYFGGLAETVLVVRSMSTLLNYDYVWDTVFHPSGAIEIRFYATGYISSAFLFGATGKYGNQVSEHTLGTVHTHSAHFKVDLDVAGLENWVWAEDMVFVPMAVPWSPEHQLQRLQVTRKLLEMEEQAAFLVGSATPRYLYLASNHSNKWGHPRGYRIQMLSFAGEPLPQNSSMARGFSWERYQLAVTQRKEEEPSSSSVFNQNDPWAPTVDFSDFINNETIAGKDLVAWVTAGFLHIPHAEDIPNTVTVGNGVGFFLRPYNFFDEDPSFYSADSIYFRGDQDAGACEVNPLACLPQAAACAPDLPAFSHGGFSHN
Assay: SSAO inhibitory activity (HRP-coupled hydrogen peroxide detection or 14C-benzaldehyde detection, benzylamine substrate)
Type: biochemical
Details: purified recombinantly expressed human SSAO, benzylamine as substrate, RT
Method: All primary assays were performed at RT. with purified recombinantly expressed human SSAO. Enzyme was prepared essentially as described in Öhman et al. (Protein Expression and Purification 46 (2006) 321-331). In addition, secondary- and selectivity assays were performed using SSAO prepared from various tissues or purified rat recombinant SSAO. The enzyme activity was assayed with benzylamine as substrate by measuring either benzaldehyde production, using ^14C-labeled substrate, or by utilizing the production of hydrogen peroxide in a horseradish peroxidase (HRP) coupled reaction. Briefly, test compounds were dissolved in dimethyl sulfoxide (DMSO) to a concentration of 10 mM. Dose-response measurements were assayed by either creating 1:10 serial dilutions in DMSO to produce a 7 point curve or by making 1:3 serial dilutions in DMSO to produce 11 point curves. The top concentrations were adjusted depending on the potency of the compounds and subsequent dilution in reaction buffer yielded a final DMSO concentration ≦2%.
In a horseradish peroxidase (HRP) coupled reaction, hydrogen peroxide oxidation of 10-acetyl-3,7-dihydroxyphenoxazine produced resorufin, which is a highly fluorescent compound (Zhout and Panchuk-Voloshina. Analytical Biochemistry 253 (1997) 169-174; Amplex® Red Hydrogen Peroxideperoxidase Assay kit, Invitrogen A22188). Enzyme and compounds in 50 mM sodium phosphate, pH 7.4 were set to pre-incubate in flat-bottomed microtiter plates for approximately 15 minutes before initiating the reaction by addition of a mixture of HRP, benzylamine and Amplex reagent. Benzylamine concentration was fixed at a concentration corresponding to the Michaelis constant, determined using standard procedures. Fluorescence intensity was then measured at several time points during 1-2 hours, exciting at 544 nm and reading the emission at 590 nm. For the human SSAO assay final concentrations of the reagents in the assay wells were: SSAO enzyme 1 μg/ml, benzylamine 100 μM, Amplex reagent 20 μM, HRP 0.1 U/mL and varying concentrations of test compound. The inhibition was measured as % decrease of the signal compared to a control without inhibitor (only diluted DMSO). The background signal from a sample containing no SSAO enzyme was subtracted from all data points. Data was fitted to a four parameter logistic model and IC50 values were calculated using the Graph Pad Prism 4 or XLfit 4 programs.
SSAO activity was assayed using 14C-labeled benzylamine and analysed by measuring radioactive benzaldehyde. In a white 96-well optiplate (Packard), 20 μL of diluted test compound was pre-incubated at RT. with 20 μL SSAO enzyme for approximately 15 minutes with continuous agitation. All dilutions were made with PBS. The reaction was initiated by adding 20 μL of the benzylamine substrate solution containing [7-14C] Benzylamine hydrochloride (CFA589, GE Healthcare). The plate was incubated for 1 hour as above after which the reaction was stopped by acidification (10 μL 1 M HCl). Then 90 μL Micro Scint-E solution (Perkin-Elmer) was added to each well and the plate was continuously mixed for 15 minutes. Phase separation occurred instantly and activity was read in a Topcount scintillation counter (Perkin-Elmer). In the final reaction well, the human recombinant SSAO concentration was 10 μg/ml. In order to optimize sensitivity, the substrate concentration was decreased as compared to the HRP coupled assay in order to get a higher fraction of radioactive product. In the human SSAO assay, benzylamine concentration was 40 μM (0.2 μCi/mL). Data was analysed as above.

SMILES | IC50
O=C(NCC1CCNCC1)C1CCN(c2nn(-c3ccc(Cl)cc3)c3cnccc23)CC1 [Compound 47, 1-[1-(4-Chlorophenyl)-1H-pyrazolo[3,4-c]pyridin-3-yl]-N-(piperidin-4-ylmethyl)piperidine-4-carboxamide dihydrochloride] | 0.1 to 0.5 µM
Cc1ccc(-n2nc(N3CCOC(CNCCN)C3)c3ccncc32)cc1 (centres unmarked) [Compound 33, (2-Aminoethyl)({4-[1-(4-methylphenyl)-1H-pyrazolo[3,4-c]pyridin-3-yl]morpholin-2-yl}methyl)amine trihydrochloride] | 0.1 to 0.5 µM
NCCCOC(=O)N1CCN(CC2CN(c3nn(-c4ccc(Cl)cc4)c4cnccc34)CCO2)CC1 (centres unmarked) [Compound 37, 3-Aminopropyl 4-({4-[1-(4-chlorophenyl)-1H-pyrazolo[3,4-c]pyridin-3-yl]morpholin-2-yl}methyl)piperazine-1-carboxylate trihydrochloride] | 0.1 to 0.5 µM
CN1CCC(NC(=O)CC2COCCN2c2nn(-c3ccc(Cl)cc3)c3cnccc23)CC1 (centres unmarked) [Compound 57, 2-{4-[1-(4-Chlorophenyl)-1H-pyrazolo[3,4-c]pyridin-3-yl]morpholin-3-yl)-N-(1-methylpiperidin-4-yl)acetamide] | 0.1 to 0.5 µM
CN1CCN(CCNc2nn(-c3ccc(Cl)cc3)c3cnccc23)CC1 [Compound 46, 1-(4-Chlorophenyl)-N-[2-(4-methylpiperazin-1-yl)ethyl]-1H-pyrazolo[3,4-c]pyridin-3-amine] | 0.1 to 0.5 µM
O=C(O)CC1COCCN1c1nn(-c2ccc(Cl)cc2)c2cnccc12 (centres unmarked) [Compound 53, 2-{4-[1-(4-Chlorophenyl)-1H-pyrazolo[3,4-c]pyridin-3-yl]morpholin-3-yl}acetic acid hydrochloride] | 0.5 to 2.5 µM
CN1CCC(CNC(=O)C2CCCCN2c2nn(-c3ccc(Cl)cc3)c3cnccc23)CC1 (centres unmarked) [Compound 43, 1-[1-(4-Chlorophenyl)-1H-pyrazolo[3,4-c]pyridin-3-yl]-N-[(1-methylpiperidin-4-yl)methyl]piperidine-2-carboxamide] | 0.1 to 0.5 µM
O=C(NCCCN1CCOCC1)N1CCC(c2cn(-c3ccc(Cl)cc3)c3cnccc23)CC1 [Compound 26, 4-(1-(4-Chlorophenyl)-1H-pyrrolo[2,3-c]pyridin-3-yl]-N-[3-(morpholin-4-yl)propyl] piperidine-1-carboxamide] | < 0.1 µM
Clc1ccc(-n2nc(NCCN3CCNCC3)c3ccncc32)cc1 [Compound 45, 1-(4-Chlorophenyl)-N-[2-(piperazin-1-yl)ethyl]-1H-pyrazolo[3,4-c]pyridin-3-amine] | 0.1 to 0.5 µM
Clc1ccc(-n2cc(C3CCN(CC4CCNCC4)CC3)c3ccncc32)cc1 [Compound 3, 4-[1-(4-Chlorophenyl)-1H-pyrrolo[2,3-c]pyridin-3-yl]-1-(piperidin-4-ylmethyl) piperidine] | 0.1 to 0.5 µM
O=C(NC1(c2nn[nH]n2)CCC1)N1CCC(c2cn(-c3ccc(Cl)cc3)c3cnccc23)CC1 [Compound 63, 4-[1-(4-Chlorophenyl)-1H-pyrrolo[2,3-c]pyridin-3-yl]-N-[1-(2H-1,2,3,4-tetrazol-5-yl)cyclobutyl]piperidine-1-carboxamide; trifluoroacetic acid] | < 0.1 µM
NCCCNC(=O)N1CCN(CC2CN(c3nn(-c4ccc(Cl)cc4)c4cnccc34)CCO2)CC1 (centres unmarked) [Compound 38, N-(3-Aminopropyl)-4-({4-[1-(4-chlorophenyl)-1H-pyrazolo[3,4-c]pyridin-3-yl]morpholin-2-yl}methyl)piperazine-1-carboxamide tri hydrochloride] | 0.1 to 0.5 µM

Results, then the compound that gave them:

IC50 | SMILES
< 0.1 µM | O=C(NC(c1nn[nH]n1)C1CC1)N1CCC(c2cn(-c3ccc(Cl)cc3)c3cnccc23)CC1 (centres unmarked) [Compound 62, 4-[1-(4-Chlorophenyl)-1H-pyrrolo[2,3-c]pyridin-3-yl]-N—[cyclopropyl(2H-1,2,3,4-tetrazol-5-yl)methyl]piperidine-1-carboxamide; trifluoroacetic acid]
< 0.1 µM | O=C(NCCN1CCOCC1)N1CCC(c2cn(-c3ccc(Cl)cc3)c3cnccc23)CC1 [Compound 22, 4-[1-(4-Chlorophenyl)-1H-pyrrolo[2,3-c]pyridin-3-yl]-N-[2-(morpholin-4-yl)ethyl]piperidine-1-carboxamide]
< 0.1 µM | O=C(NCCN1CCNCC1)N1CCC(c2cn(-c3ccc(Cl)cc3)c3cnccc23)CC1 [Compound 23, 4-[1-(4-Chlorophenyl)-1H-pyrrolo[2,3-c]pyridin-3-yl]-N-[2-(piperazin-1-yl)ethyl] piperidine-1-carboxamide]
< 0.1 µM | COCCN1CCN(C(=O)N2CCC(c3cn(-c4ccc(Cl)cc4)c4cnccc34)CC2)CC1 [Compound 18, 1-({4-[1-(4-Chlorophenyl)-1H-pyrrolo[2,3-c]pyridin-3-yl]piperidin-1-yl}carbonyl)-4-(2-methoxyethyl) piperazine]
< 0.1 µM | NCCNC(=O)CC1COCCN1c1nn(-c2ccc(Cl)cc2)c2cnccc12 (centres unmarked) [Compound 54, N-(2-Aminoethyl)-2-{4-[1-(4-chlorophenyl)-1H-pyrazolo[3,4-c]pyridin-3-yl]morpholin-3-yl}acetamide dihydrochloride]
< 0.1 µM | CC(C)[C@H]1CN(C(=O)N2CCC(c3cn(-c4ccc(Cl)cc4)c4cnccc34)CC2)CCN1 [Compound 19, (3S)-1-({4-[1-(4-Chlorophenyl)-1H-pyrrolo[2,3-c]pyridin-3-yl]piperidin-1-yl}carbonyl)-3-(propan-2-yl) piperazine]
< 0.1 µM | CC(C)N1CCN(C(=O)N2CCC(c3cn(-c4ccc(Cl)cc4)c4cnccc34)CC2)CC1 [Compound 17, 1-({4-[1-(4-Chlorophenyl)-1H-pyrrolo[2,3-c]pyridin-3-yl]piperidin-1-yl}carbonyl)-4-(propan-2-yl)piperazine]
< 0.1 µM | NC(=O)CN1CCC(CNC(=O)N2CCC(c3cn(-c4ccc(Cl)cc4)c4cnccc34)CC2)CC1 [Compound 14, N-{[1-(Carbamoyl-methyl)piperidin-4-yl]methyl}-4-[1-(4-chlorophenyl)-1H-pyrrolo[2,3-c]pyridin-3-yl] piperidine-1-carboxamide; formic acid]
< 0.1 µM | COCCN1CCC(CNC(=O)N2CCC(c3cn(-c4ccc(Cl)cc4)c4cnccc34)CC2)CC1 [Compound 28, 4-[1-(4-Chlorophenyl)-1H-pyrrolo[2,3-c]pyridin-3-yl]-N-{[1-(2-methoxyethyl)piperidin-4-yl]methyl}piperidine-1-carboxamide; formic acid]
< 0.1 µM | CN1CCN(CCC2COCCN2c2nn(-c3ccc(Cl)cc3)c3cnccc23)CC1 (centres unmarked) [Compound 42, 4-[1-(4-Chlorophenyl)-1H-pyrazolo[3,4-c]pyridin-3-yl]-3-[2-(4-methylpiperazin-1-yl)ethyl]morpholine]
< 0.1 µM | COC(=O)CC1COCCN1c1nn(-c2ccc(Cl)cc2)c2cnccc12 (centres unmarked) [Compound 40, Methyl 2-{4-[1-(4-chlorophenyl)-1H-pyrazolo[3,4-c]pyridin-3-yl]morpholin-3-yl}acetate]

— US20140275063A1, “NEW ENZYME INHIBITOR COMPOUNDS” (PROXIMAGEN LIMITED, priority 2011, published 2014)
